Here are results for 2 compounds from ChEMBL document CHEMBL1141728, “Transtorine, a new quinoline alkaloid from Ephedra transitoria” (1998).

Converted amounts (≈) assume the structure as drawn. The source made the active and inactive calls. The rule behind the calls is not given here.

The test system of one assay is Shigella flexneri. The assay is described as follows: Antibacterial activity against Shigella flexneri by disk diffusion method. The class given is functional.
The subject of the next assay is Pseudomonas aeruginosa. Kind of assay: Antibacterial activity against Pseudomonas aeruginosa by disk diffusion method. The class given is functional.
The subject of the next assay is Bacillus subtilis. The assay is described as follows: Antibacterial activity against Bacillus subtilis by disk diffusion method.
The subject of the next assay is Proteus mirabilis. Kind of assay: Antibacterial activity against Proteus mirabilis by disk diffusion method.
The test system of the next assay is Enterobacter cloacae. Kind of assay: Antibacterial activity against Enterobacter cloacae by disk diffusion method. The class given is functional.
For the next assay, the system named is Staphylococcus aureus. The assay is described as follows: Antibacterial activity against Staphylococcus aureus by disk diffusion method. The class given is functional.

As for `O=C(O)c1cn(C2CC2)c2cc(N3CCNCC3)c(F)cc2c1=O` [CIPROFLOXACIN], the minimal inhibitory concentration (MIC) in the assay with Shigella flexneri, with Pseudomonas aeruginosa, with Bacillus subtilis and with Proteus mirabilis was 20 µg/mL (≈ 60.4 µM) in each case.
For the compound `O=C(O)c1cc(=O)c2ccccc2[nH]1` [TRANSTORINE], in the assay with Shigella flexneri, the result was inactive. Further, the MIC against Enterobacter cloacae is 450 µg/mL (≈ 2380 µM); with Pseudomonas aeruginosa, 500 µg/mL (≈ 2640 µM); against Staphylococcus aureus it was 380 µg/mL (≈ 2010 µM).
